We go through twelve molecules from patent US11590116B2 (THERAVANCE BIOPHARMA R&D IP, LLC, priority 2019, dated 2023).

SMILES strings stand for the structures.

In experiment [1] the test system is TGF-β-stimulated SMAD3 phosphorylation in BEAS-2B cells. Put plainly: Cellular ALK5 potency assay, inhibition of TGF-β stimulated pSMAD3 formation in BEAS-2B cells. The class given is cell-based. Conditions: Homo sapiens; inhibition of TGF-β stimulated pSMAD3 formation, BEAS-2B cells; read-out: BEAS2B pIC50 (converted). The method in brief:
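Cells seeded overnight; rinse with supplemented HBSS; compound 1 h at 37 °C; TGF-β 10 ng/mL final, 30 min; lyse; AlphaLISA acceptor and detector beads 2 h apart, read next day. Potency expressed as pIC50.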

In experiment [2] the target is T1, recombinant human ALK5 (TGF-βR1) protein (Homo sapiens, UniProt P36897).
T1 construct: purchased Life Technologies PR9075A
T1 sequence (P36897 34-503): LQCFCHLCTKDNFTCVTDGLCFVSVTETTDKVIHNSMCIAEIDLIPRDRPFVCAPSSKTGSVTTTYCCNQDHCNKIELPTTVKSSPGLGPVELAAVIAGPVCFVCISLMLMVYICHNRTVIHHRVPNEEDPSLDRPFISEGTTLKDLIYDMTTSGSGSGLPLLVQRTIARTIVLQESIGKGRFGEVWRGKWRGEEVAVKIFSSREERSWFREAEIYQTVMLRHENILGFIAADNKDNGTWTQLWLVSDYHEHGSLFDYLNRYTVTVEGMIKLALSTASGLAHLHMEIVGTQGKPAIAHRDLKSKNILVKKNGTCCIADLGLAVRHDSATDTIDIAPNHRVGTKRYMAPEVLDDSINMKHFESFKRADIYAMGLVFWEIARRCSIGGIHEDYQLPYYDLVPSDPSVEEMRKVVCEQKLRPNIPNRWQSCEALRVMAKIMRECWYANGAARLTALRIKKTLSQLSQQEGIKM
Put plainly: Biochemical ALK5 (TGF-βR1) assay to measure pKi (LANCE Ultra ULight kinase assay). The note with it: apparent pKi from pIC50 by Cheng-Prusoff, read-out: ALK5 pKi (converted). The method in brief:
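After a 60 min room-temperature preincubation of ALK5 with compound, phosphorylation proceeds 60 min at 37 °C on ATP addition (125 μM as 5× stock). Detection: Eu-labelled phospho-Thr1342 Topo IIα antibody in EDTA buffer, pH 7.0; emission 665 nm.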

Consider `CNC1CCN(c2cnc3ccc(-c4c[nH]nc4-c4ccc(F)c(C)n4)nc3c2)CC1` [Compound 264, 1-[6-[3-(5-fluoro-6-methyl-2-pyridyl)-1H-pyrazol-4-yl]-1,5-naphthyridin-3-yl]-N-methyl-piperidin-4-amine], for which the IC50 in experiment [1] is 25.1 to 158 nM. Also, the Ki in experiment [2] is less than 0.0316 nM.
In the case of `COC(=O)N1CCc2nnc(-c3cnc4ccc(-c5c[nH]nc5-c5ccc(F)c(C)n5)nc4c3)cc2C1` [Compound 303, methyl 3-[6-[3-(5-fluoro-6-methyl-2-pyridyl)-1H-pyrazol-4-yl]-1,5-naphthyridin-3-yl]-7,8-dihydro-5H-pyrido[4,3-c]pyridazine-6-carboxylate], the IC50 in experiment [1] is 25.1 to 158 nM. Moreover, the Ki in experiment [2] was 0.0398 to 0.316 nM.
With `Cc1cccc(-c2[nH]cnc2-c2ccc3nccc(C(=O)O[C@H]4C[C@@H](N)C4)c3c2)n1` [Compound 1042, (3-aminocyclobutyl) 6-[5-(6-methyl-2-pyridyl)-1H-imidazol-4-yl]quinoline-4-carboxylate], the IC50 in experiment [1] is 25.1 to 158 nM. For the same molecule, the Ki in experiment [2] was 0.398 to 3.16 nM.
On the same counts, the results for `Cc1cccc(-c2n[nH]cc2-c2ccc3ncc(-c4cnn(CCN(C)C)c4)cc3n2)n1` [Compound 221, N,N-dimethyl-2-[4-[6-[3-(6-methyl-2-pyridyl)-1H-pyrazol-4-yl]-1,5-naphthyridin-3-yl]pyrazol-1-yl]ethanamine] are 25.1 to 158 nM and less than 0.0316 nM.
Take `Cc1nc(-c2n[nH]cc2-c2ccc3ncc(NCCN4CCN(C(C)C)CC4)cc3c2)ccc1F` [Compound 166, 6-[3-(5-fluoro-6-methyl-2-pyridyl)-1H-pyrazol-4-yl]-N-[2-(4-isopropylpiperazin-1-yl)ethyl]quinolin-3-amine]: the IC50 in experiment [1] is 25.1 to 158 nM. Further, the Ki in experiment [2] was 0.0398 to 0.316 nM.
On to `Cc1cccc(-c2[nH]cnc2-c2ccc3ncc(C(=O)O[C@@H]4CCNC4)cc3c2)n1` [Compound 1149, [(3R)-pyrrolidin-3-yl] 6-[5-(6-methyl-2-pyridyl)-1H-imidazol-4-yl]quinoline-3-carboxylate], for which, in experiment [1], the IC50 was 200 to 1260 nM. Further, in experiment [2], the Ki was 0.398 to 3.16 nM.
On the same counts, the results for `Cc1cccc(-c2nnn(Cc3ccccc3)c2-c2ccc3ncc(N4CCCNCC4)cc3c2)n1` [Compound 411, 6-[3-benzyl-5-(6-methyl-2-pyridyl)triazol-4-yl]-3-(1,4-diazepan-1-yl)quinoline] are 25.1 to 158 nM and 0.0398 to 0.316 nM.
The matching figures for `Cc1cccc(-c2n[nH]cc2-c2ccc3ncc(N(C)C4CCN(C(C)C)C4)cc3n2)n1` (racemic) [Compound 503, N-methyl-6-[3-(6-methyl-2-pyridyl)-1H-pyrazol-4-yl]-N-[rac-(3R)-1-isopropylpyrrolidin-3-yl]-1,5-naphthyridin-3-amine]: 25.1 to 158 nM and less than 0.0316 nM.
On the same counts, the results for `Cc1cccc(-c2[nH]cnc2-c2ccc3ncc(C(=O)O[C@H]4CCCC[C@H]4N)cc3c2)n1` [Compound 882, (1S,2R)-2-aminocyclohexyl 6-(5-(6-methylpyridin-2-yl)-1H-imidazol-4-yl)quinoline-3-carboxylate] are 25.1 to 158 nM and 3.98 to 31.6 nM.
Take `CNC1CN(c2cnc3ccc(-c4nc[nH]c4-c4cccc(C)n4)cc3c2)C1` [Compound 614, N-methyl-1-[6-[5-(6-methyl-2-pyridyl)-1H-imidazol-4-yl]-3-quinolyl]azetidin-3-amine]: the IC50 in experiment [1] is 25.1 to 158 nM. Also, the Ki in experiment [2] is 0.0398 to 0.316 nM.
Take `Cc1cccc(-c2n[nH]cc2-c2ccc3ncc(C4=CCNC4)cc3n2)n1` [Compound 588, 7-(2,5-dihydro-1H-pyrrol-3-yl)-2-[3-(6-methyl-2-pyridyl)-1H-pyrazol-4-yl]-1,5-naphthyridine]: the IC50 in experiment [1] was less than 20 nM. The Ki in experiment [2] was 0.0398 to 0.316 nM.
On the same counts, the results for `Cc1cccc(-c2n[nH]cc2-c2ccc3ncc(-c4cn5c(n4)CN(C4CCNC4)CC5)cc3n2)n1` (stereo not drawn) [Compound 440, 2-[3-(6-methyl-2-pyridyl)-1H-pyrazol-4-yl]-7-(7-pyrrolidin-3-yl-6,8-dihydro-5H-imidazo[1,2-a]pyrazin-2-yl)-1,5-naphthyridine] are 200 to 1260 nM and 0.0398 to 0.316 nM.
